Reference: patent US20070185077A1, “Methods of treating, preventing and inhibiting cancer metastasis and tumor formation” (Washington University, priority 2003, published 2007)
pKd: −log10 of the molar value. Bridge positions count the residues as written; N and C are the ends. Square brackets hold non-standard residues; d marks the D form. Peptide text beside a SMILES is read from it. Phe(4-CH2NH2) = NCc1ccc(C[C@H](N)C(=O)O)cc1; Thz(5,5-Me2) = CC1(C)SCN[C@@H]1C(=O)O; NMeR = CN[C@@H](CCCNC(=N)N)C(=O)O; 3Amb = NCc1cccc(C(=O)O)c1; dAbu = CC[C@@H](N)C(=O)O

Columns and labels:
[1] = molecular target: activated platelet GPIIb/IIIa receptors (Homo sapiens, UniProt P05106+P08514); details: cited from earlier work; for affinity for activated versus resting platelet GPIIb/IIIa: resting vs activated form
[2] = molecular target: platelet GPIIb/IIIa receptors (Homo sapiens, UniProt P05106+P08514); details: cited from earlier work
[3] = molecular target: resting platelet GPIIb/IIIa receptors (Homo sapiens, UniProt P05106+P08514); details: resting form of GPIIb/IIIa; cited from earlier work
platelet aggregation = test: Platelet aggregation after in vivo oral administration (aggregometry from PRP); set-up: species or system mice; details: after an oral dose of 100 mg/kg
Source text: An activated αIIbβ3 receptor antagonist in β3^+/+ mice was utilized in examples showing the role of platelet β3 integrin in the protection from bone metastases seen in the β3^−/− mouse. […] However, those skilled in the art will recognize that additional activated αIIbβ3 receptor antagonists may be used in the methods, the efficacies of which may be determined using the protocols of the present disclosure. Additional protocols are available to those skilled in the art to determine the efficacy of other activated αIIbβ3 receptor antagonists. Such activated αIIb3 receptor antagonists are meant to be encompassed within the scope of the present invention.
(§1) C57BI6 mice were used to analyze metastasis antagonism. […] Blockade of platelet aggregation is complete at 30 minutes after oral gavage but persists for up to 10 hours. […] Thirty minutes after the first oral-gavage dose, mice were LV injected with B16 cells and evaluated for metastases 14 days later.

B16 melanoma cells = test: B16 LV injection metastasis model in β3+/+ mice; type: in vivo
Description: The activated αIIbβ3 receptor antagonist was tested based on its ability to diminish metastases in wild type mice. […] The mice were treated 30 minutes prior to the LV injection of 1×10^5 B16 cells, and then every 12 hours for 5 doses (2.5 days of treatment out of the 14 day experiment). 14/40 (35%) mice died from bleeding complications after the LV injection indicative of effective disruption of αIIbβ3 mediated platelet aggregation. 1/17 (6%) placebo treated mice died after the LV injection procedure. […] Placebo in DMSO carrier was also administered by oral gavage. Mice were evaluated 14 days after B16 injection for bone and visceral metastases.
Mice were anaesthetized followed by injection with 30 gauge needles of 1×10^5 B16 cells in 100 μl PBS into the left cardiac ventricle as previously described. Confirmation of correct insertion was established by pulsing geyser of blood in the syringe. After the injection mice were monitored daily for 14 days.
as §1

[4] = cited from earlier work

activated platelet GPIIb/IIIa receptors, sequence (P08514 32-887 limits assumed): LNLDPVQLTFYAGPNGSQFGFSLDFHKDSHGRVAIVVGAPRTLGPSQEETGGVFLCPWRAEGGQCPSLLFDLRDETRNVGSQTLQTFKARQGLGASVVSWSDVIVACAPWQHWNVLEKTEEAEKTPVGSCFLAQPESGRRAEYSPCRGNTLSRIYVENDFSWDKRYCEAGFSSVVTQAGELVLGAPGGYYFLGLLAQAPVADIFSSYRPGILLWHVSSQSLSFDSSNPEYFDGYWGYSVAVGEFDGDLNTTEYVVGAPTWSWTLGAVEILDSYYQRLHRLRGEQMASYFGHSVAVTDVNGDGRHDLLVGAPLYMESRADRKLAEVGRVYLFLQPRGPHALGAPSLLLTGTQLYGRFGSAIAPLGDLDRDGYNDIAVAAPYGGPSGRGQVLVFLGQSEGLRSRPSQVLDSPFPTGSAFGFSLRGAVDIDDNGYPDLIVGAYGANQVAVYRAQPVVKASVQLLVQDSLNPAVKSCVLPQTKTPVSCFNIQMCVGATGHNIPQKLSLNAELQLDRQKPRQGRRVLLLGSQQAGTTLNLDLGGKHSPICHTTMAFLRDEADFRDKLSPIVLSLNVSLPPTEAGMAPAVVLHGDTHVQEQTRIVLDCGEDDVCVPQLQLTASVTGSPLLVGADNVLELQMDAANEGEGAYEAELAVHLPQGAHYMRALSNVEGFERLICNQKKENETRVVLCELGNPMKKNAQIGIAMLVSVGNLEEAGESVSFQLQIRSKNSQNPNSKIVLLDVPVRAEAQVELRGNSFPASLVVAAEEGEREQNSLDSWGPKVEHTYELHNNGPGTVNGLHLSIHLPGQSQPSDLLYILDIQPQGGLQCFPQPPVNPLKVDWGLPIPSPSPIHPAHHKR
activated platelet GPIIb/IIIa receptors, sequence (P08514 891-1039 limits assumed): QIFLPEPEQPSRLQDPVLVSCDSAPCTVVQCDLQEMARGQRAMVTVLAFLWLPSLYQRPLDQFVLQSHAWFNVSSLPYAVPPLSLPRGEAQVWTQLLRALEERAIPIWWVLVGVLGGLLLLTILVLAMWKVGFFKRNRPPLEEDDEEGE
activated platelet GPIIb/IIIa receptors, sequence (P05106 27-788): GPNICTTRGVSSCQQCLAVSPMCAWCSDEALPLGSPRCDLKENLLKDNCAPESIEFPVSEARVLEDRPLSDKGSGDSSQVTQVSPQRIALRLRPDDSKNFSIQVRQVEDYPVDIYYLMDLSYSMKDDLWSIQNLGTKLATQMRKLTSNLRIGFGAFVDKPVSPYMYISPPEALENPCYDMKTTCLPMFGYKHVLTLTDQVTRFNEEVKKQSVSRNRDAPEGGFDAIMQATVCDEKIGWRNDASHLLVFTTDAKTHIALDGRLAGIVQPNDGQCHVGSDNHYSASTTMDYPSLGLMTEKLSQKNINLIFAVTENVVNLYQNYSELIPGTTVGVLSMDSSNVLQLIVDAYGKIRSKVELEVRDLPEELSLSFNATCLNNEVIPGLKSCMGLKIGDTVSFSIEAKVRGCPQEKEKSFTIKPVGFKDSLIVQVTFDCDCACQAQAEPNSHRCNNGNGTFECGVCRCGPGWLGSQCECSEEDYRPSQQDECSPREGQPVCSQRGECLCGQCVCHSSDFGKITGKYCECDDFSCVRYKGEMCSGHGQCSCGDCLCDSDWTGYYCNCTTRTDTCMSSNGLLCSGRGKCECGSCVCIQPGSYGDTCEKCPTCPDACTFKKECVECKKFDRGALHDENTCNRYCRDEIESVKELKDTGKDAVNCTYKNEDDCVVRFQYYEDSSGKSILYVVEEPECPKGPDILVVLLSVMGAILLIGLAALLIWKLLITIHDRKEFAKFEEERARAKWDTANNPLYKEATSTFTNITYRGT
platelet GPIIb/IIIa receptors, sequence (P08514 32-887 limits assumed): as the sequence (P08514 32-887 limits assumed) above
platelet GPIIb/IIIa receptors, sequence (P08514 891-1039 limits assumed): as the sequence (P08514 891-1039 limits assumed) above
platelet GPIIb/IIIa receptors, sequence (P05106 27-788): as the sequence (P05106 27-788) above
resting platelet GPIIb/IIIa receptors, sequence (P08514 32-887 limits assumed): as the sequence (P08514 32-887 limits assumed) above
resting platelet GPIIb/IIIa receptors, sequence (P08514 891-1039 limits assumed): as the sequence (P08514 891-1039 limits assumed) above
resting platelet GPIIb/IIIa receptors, sequence (P05106 27-788): as the sequence (P05106 27-788) above

Molecule: CC[C@H]1NC(=O)c2cccc(c2)CNC(=O)[C@H](CC(=O)O)NC(=O)CNC(=O)[C@H](CCCN=C(N)N)N(C)C1=O.CS(=O)(=O)O [DMP728] (cyclo([NMeR]GD[3Amb][dAbu]))
- affinity for activated versus resting platelet GPIIb/IIIa [1]: much higher affinity to the activated form
- platelet dissociation rate [2]: relatively fast

Molecule: C[C@H](CC(=O)O)NC(=O)CN1CCC[C@@H](CCC2CCNCC2)C1=O [L734217]
- pKd ([1]; activated form of GPIIb/IIIa): 8.30
- affinity for activated versus resting platelet GPIIb/IIIa [1]: much higher affinity to the activated form
- pKd [3]: 6.21
- platelet dissociation rate [2]: relatively fast

Molecule: CC(=O)N[C@H]1CSSC[C@@H](C(=O)O)NC(=O)[C@H](CC(=O)O)NC(=O)CNC(=O)[C@H](Cc2ccc(CN)cc2)NC(=O)[C@H]2N(CSC2(C)C)C(=O)[C@@H](CC(N)=O)NC1=O [MK852] (Ac-C[dN][Thz(5,5-Me2)][Phe(4-CH2NH2)]GDC-OH; disulfide 1-7)
- affinity for activated versus resting platelet GPIIb/IIIa [1]: much higher affinity to the activated form
- platelet dissociation rate [2]: relatively fast

Molecule: CCOC(=O)CCNC(=O)N1CCC2(CC1)CCN(c1ccc(C(=N)NO)cc1)C2=O [ML464]
- duration of disruption of platelet aggregation (platelet aggregation): up to 10 hours
- surviving mice with bone metastases (B16 melanoma cells; 100 mg/Kg oral every 12 hours for 5 doses, 14 days after B16 LV injection, vehicle 76%, P=0.0013): 23%
- visceral metastases versus placebo (B16 melanoma cells; 100 mg/Kg oral every 12 hours for 5 doses, day 14, P=0.0125): decrease
- mice died from bleeding complications after the LV injection (B16 melanoma cells; 100 mg/Kg oral gavage, 30 minutes prior to LV injection, 14/40 mice): 35%
- number and size of visceral metastases versus placebo group (B16 melanoma cells; mice that did develop metastases, tumor sizes not measured): reduced
- metastases in inhibitor treated mice compared to placebo treated mice (B16 melanoma cells; β3+/+ mice, FIG. 5(b)): decrease of metastases

Molecule: CCCCOC(=O)N[C@@H](CNC(=O)C[C@H]1CC(c2ccc(C(=N)N)cc2)=NO1)C(=O)OC [roxifiban]
- affinity for activated versus resting platelet GPIIb/IIIa [1]: comparable Kd values
- platelet dissociation rate [2]: relatively slow

Molecule: Abciximab: Fab fragment of the chimeric human-murine monoclonal antibody 7E3
- human antibody response to the chimeric antibody, patients [4]: approximately 6%
